“And” between values parts separate entries of the source, which are not always exact repeats. Equal values may be shown once.
What was measured:
neuroblastoma cells = test: SHG and 2PF imaging of stained neuroblastoma cells, 1064 nm fiber laser; type: cell-based, mouse; conditions: 1064 nm excitation
Text: For full details of our non-linear imaging microscope, we refer the reader to previously published descriptions. A. C. Millard, P. J. Campagnola, W. Mohler, A. Lewis, and L. M. Loew, “Second Harmonic Imaging Microscopy,” Meth. Enzymol. 361, 47-69 (2003); Millard, A. C., L. Jin, and L. M. Loew, “Second Harmonic Generation Imaging Microscopy with a High Power Ultrafast Fiber Laser,”Commercial and Biomedical Applications of Ultrafast Lasers. 5714-5716, 92-98 (2005); A. C. Millard, L. Jin, M.-D. Wei, J. P. Wuskell, A. Lewis, and L. M. Loew, “Sensitivity of Second Harmonic Generation from Styryl Dyes to Transmembrane Potential,” Biophys. J. 86, 1169-1176 (2004). Our current microscope combines a Fluoview (Olympus) scan-head and an Axiovert (Zeiss) inverted microscope constructed for multiple imaging methodologies including wide-field, one-photon excitation fluorescence imaging, as well as SHG and 2PF imaging. Our laser sources include a Mira (Coherent) Ti:sapphire laser and a Femtopower (Fianium) fiber laser operating at 1064 nm. […] Fluorescence is imaged (for linear imaging) or collected (for non-linear imaging) back through the excitation objective, while SHG is collected in the forward, transmitted light direction by a condenser, either 0.8 NA or 0.55 NA (Zeiss). […]

[1] = One-photon absorption and emission spectra in multilamellar lipid vesicles, water and ethanol; type: physicochemical; conditions: one photon; soybean multi-lamellar lipid vesicles
Text: […] The column indicating relative signal change for one-photon fluorescence also lists the excitation light source used and the lower bounds of the long-pass emission detected.
Absorption and emission spectra were obtained for a series of dyes with different acceptors: pyridinium (PY-1261), quinolinium (PY-212), and acridinium (PY-2240).

[2] = One-photon fluorescence relative signal change per 100 mV; conditions: excitation / long-pass emission (nm) given
Text: The left-most data columns of Table 1 are the absorption and emission maxima for one photon fluorescence in soybean multi-lamellar lipid vesicles used to mimic the membrane environment. The column indicating relative signal change for one-photon fluorescence also lists the excitation light source used and the lower bounds of the long-pass emission detected.

membrane potential = conditions: literature; cited from earlier work

1PF Abs. Max [1] [nm]	1PF Em. Max [1] [nm]	SMILES	2PF and SHG image signal strength (neuroblastoma cells)	1PF Change (ΔF/F-100 mv) [2]	SHG sensitivity to membrane potential (membrane potential)
536	588	CCCCN(CCCC)c1ccc(/C=C/c2cc[n+](CCC[N+](CC)(CC)CC)cc2)s1 [PY-1284]	weak	1.5E−002; 555/>610 ΔF/F-100 mv	–
–	–	CCN(CC)c1ccc(/C=C/C=C/C=C/c2cc[n+](CCC[N+](CC)(CC)CC)cc2)cc1.[Br-].[Br-] [FM4-64]	–	–	< 10 % per 100 mV and 7.5-10 % per 100 mV
